# What was measured:
# Type in all cases: in vivo
# Stellaria media = experiment: Post-emergence herbicidal action; conditions: application rate 20 g/ha
# Method in brief: (§1)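 Plants grown from seed in sandy loam in the greenhouse were sprayed at the one-leaf stage, 2 to 3 weeks after sowing, with WP or EC formulations in water plus 0.5% additive at 20 g/ha or less. Activity was rated visually after about 3 weeks against untreated controls (100% = plants died, 0% = like control).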
# Echinochloa crus-galli [1] = experiment: Post-emergence herbicidal action; conditions: Echinochloa crus-galli, 504 h, read-out: Echinochloa crus-galli (efficacy in %)
# Method in brief: as §1
# Digitaria sanguinalis [2] = experiment: Post-emergence herbicidal action; conditions: 504 h, application rate 20 g/ha, read-out: Digitaria sanguinalis (efficacy in %)
# Method in brief: as §1
# Abutilon theophrasti [3] = experiment: Post-emergence herbicidal action; conditions: Abutilon theophrasti, 504 h, read-out: Abutilon theophrasti (efficacy in %)
# Method in brief: as §1
# Setaria viridis [4] = experiment: Post-emergence herbicidal action; conditions: 504 h, read-out: Setaria viridis (efficacy in %)
# Method in brief: as §1
# Matricaria inodora [5] = experiment: Post-emergence herbicidal action; conditions: Tripleurospermum inodorum, 504 h, read-out: Matricaria inodora (efficacy in %)
# Method in brief: as §1
# Polygonum convolvulus [6] = experiment: Post-emergence herbicidal action; conditions: Fallopia convolvulus, 504 h, application rate 20 g/ha, read-out: Polygonum convolvulus (efficacy in %)
# Method in brief: as §1
# Pharbitis purpurea [7] = experiment: Post-emergence herbicidal action; conditions: Ipomoea purpurea, 504 h, application rate 5 g/ha, read-out: Pharbitis purpurea (efficacy in %)
# Method in brief: as §1
# Viola tricolor [8] = experiment: Post-emergence herbicidal action; conditions: Viola tricolor, 504 h, read-out: Viola tricolor (efficacy in %)
# Method in brief: as §1
# Veronica persica [9] = experiment: Post-emergence herbicidal action; conditions: Veronica persica, 504 h, read-out: Veronica persica (efficacy in %)
# Method in brief: as §1
# Amaranthus retroflexus [10] = experiment: Post-emergence herbicidal action; conditions: Amaranthus retroflexus, 504 h, read-out: Amaranthus retroflexus (efficacy in %)
# Method in brief: as §1
# Brassica napus [11] = experiment: Post-emergence crop plant compatibility; conditions: application rate 1.25 g/ha
# Method in brief: (§2)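 Values are visual % effects about 3 weeks after treatment, relative to untreated plants (0% = like control, 100% = plant death). Crops sown in sandy loam under greenhouse conditions were treated post-emergence at the one-leaf stage (2–3 weeks). Compounds were applied as WP or EC sprays with 0.5% additive at […] water.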
# Zea mays [12] = experiment: Post-emergence crop plant compatibility; conditions: application rate 1.25 g/ha
# Method in brief: as §2
# Oryza sativa = experiment: Post-emergence crop plant compatibility
# Method in brief: as §2
# Glycine max = experiment: Post-emergence crop plant compatibility
# Method in brief: as §2
# Brassica napus [13] = experiment: Pre-emergence crop plant compatibility; conditions: application rate 20 g/ha
# Description: (§3) Seeds of monocotyledonous and dicotyledonous weed plants and crop plants were placed in plastic or organic planting pots and covered with soil. The compounds of the invention, formulated in the form of wettable powders (WP) or as emulsion concentrates (EC), were then applied to the surface of the covering soil as aqueous suspension or emulsion with addition of 0.5% additive at a water application rate equivalent to […] (converted). After the treatment, the pots were placed in a greenhouse and kept under good growth conditions for the test plants. After about 3 weeks, the effect of the preparations was scored visually in comparison with untreated controls as percentages. For example, 100% activity=the plants have died, 0% activity=like control plants.
# (§4) Here, the observed effects on selected crop plants are stated in comparison to the untreated controls (values in %).
# Zea mays [14] = experiment: Pre-emergence crop plant compatibility; conditions: application rate 20 g/ha
# Description: as §3, §4
# Triticum aestivum = experiment: Pre-emergence crop plant compatibility; conditions: application rate 20 g/ha
# Description: as §3, §4
# Echinochloa crus-galli [15] = experiment: Pre-emergence herbicidal action; conditions: application rate 80 g/ha, scored after about 3 weeks
# Description: as §3
# (§5) Tables B1 to B11 below show the effects of selected compounds of the general formula (I) according to Tables I.1 to I.34 on various harmful plants and at an application rate corresponding to 80 g/ha and less, which were obtained by the experimental procedure mentioned above.
# Digitaria sanguinalis [16] = experiment: Pre-emergence herbicidal action; conditions: scored after about 3 weeks
# Description: as §3, §5
# Abutilon theophrasti [17] = experiment: Pre-emergence herbicidal action; conditions: application rate 80 g/ha, scored after about 3 weeks
# Description: as §3, §5
# Setaria viridis [18] = experiment: Pre-emergence herbicidal action; conditions: scored after about 3 weeks
# Description: as §3, §5
# Matricaria inodora [19] = experiment: Pre-emergence herbicidal action; conditions: scored after about 3 weeks
# Description: as §3, §5
# Polygonum convolvulus [20] = experiment: Pre-emergence herbicidal action; conditions: scored after about 3 weeks
# Description: as §3, §5
# Lolium rigidum = experiment: Pre-emergence herbicidal action; conditions: application rate 80 g/ha, scored after about 3 weeks
# Description: as §3, §5
# Pharbitis purpurea [21] = experiment: Pre-emergence herbicidal action; conditions: application rate 80 g/ha, scored after about 3 weeks
# Description: as §3, §5
# Viola tricolor [22] = experiment: Pre-emergence herbicidal action; conditions: scored after about 3 weeks
# Description: as §3, §5
# Veronica persica [23] = experiment: Pre-emergence herbicidal action; conditions: scored after about 3 weeks
# Description: as §3, §5
# Amaranthus retroflexus [24] = experiment: Pre-emergence herbicidal action; conditions: scored after about 3 weeks
# Description: as §3, §5
# Alopecurus myosuroides = experiment: Pre-emergence herbicidal action; conditions: application rate 80 g/ha
# Description: as §3, §5
structure (smiles),measurement,setting,value
"CCOC(=O)COc1ncccc1Sc1cc(-n2c(=O)cc(C(F)(F)F)n(N)c2=O)c(F)cc1Cl [I.1-442, Ethyl {[3-({5-[3-amino-2,6-dioxo-4-(trifluoromethyl)-3,6-dihydropyrimidin-1(2H)-yl]-2-chloro-4-fluorophenyl}sulfanyl)pyridin-2-yl]oxy}acetate]",Stellaria media (efficacy in %),Stellaria media,100%
same,pest or weed control at 5 g/ha,Echinochloa crus-galli [1]; application rate 5 g/ha,100%
same,pest or weed control at 20 g/ha,Echinochloa crus-galli [1]; application rate 20 g/ha,100%
same,pest or weed control at 20 g/ha,Digitaria sanguinalis [2],100%
same,pest or weed control at 5 g/ha,Abutilon theophrasti [3]; application rate 5 g/ha,100%
same,pest or weed control at 20 g/ha,Abutilon theophrasti [3]; application rate 20 g/ha,100%
same,pest or weed control at 5 g/ha,Setaria viridis [4]; application rate 5 g/ha,100%
same,pest or weed control at 20 g/ha,Setaria viridis [4]; application rate 20 g/ha,100%
same,pest or weed control at 5 g/ha,Matricaria inodora [5]; application rate 5 g/ha,90%
same,pest or weed control at 20 g/ha,Matricaria inodora [5]; application rate 20 g/ha,100%
same,pest or weed control at 20 g/ha,Polygonum convolvulus [6],100%
same,pest or weed control at 5 g/ha,Pharbitis purpurea [7],100%
same,pest or weed control at 5 g/ha,Viola tricolor [8]; application rate 5 g/ha,100%
same,pest or weed control at 20 g/ha,Viola tricolor [8]; application rate 20 g/ha,100%
same,pest or weed control at 5 g/ha,Veronica persica [9]; application rate 5 g/ha,100%
same,pest or weed control at 20 g/ha,Veronica persica [9]; application rate 20 g/ha,100%
same,pest or weed control at 5 g/ha,Amaranthus retroflexus [10]; application rate 5 g/ha,100%
same,pest or weed control at 20 g/ha,Amaranthus retroflexus [10]; application rate 20 g/ha,100%
same,Brassica napus (efficacy in %),Brassica napus [11],10%
same,Zea mays (efficacy in %),Zea mays [12],20%
same,Oryza sativa (efficacy in %),Oryza sativa; application rate 1.25 g/ha,10%
same,Oryza sativa (efficacy in %),Oryza sativa; application rate 5 g/ha,20%
same,Glycine max (efficacy in %),Glycine max; application rate 1.25 g/ha,10%
same,Glycine max (efficacy in %),Glycine max; application rate 5 g/ha,20%
same,Brassica napus (efficacy in %),Brassica napus [13],0%
same,Zea mays (efficacy in %),Zea mays [14],0%
same,Triticum aestivum (efficacy in %),Triticum aestivum,10%
same,Echinochloa crus-galli (efficacy in %),Echinochloa crus-galli [15],100%
same,Digitaria sanguinalis (efficacy in %),Digitaria sanguinalis [16]; application rate 20 g/ha,100%
same,Digitaria sanguinalis (efficacy in %),Digitaria sanguinalis [16]; application rate 80 g/ha,100%
same,Abutilon theophrasti (efficacy in %),Abutilon theophrasti [17],100%
same,Setaria viridis (efficacy in %),Setaria viridis [18]; application rate 20 g/ha,90%
same,Setaria viridis (efficacy in %),Setaria viridis [18]; application rate 80 g/ha,100%
same,Matricaria inodora (efficacy in %),Matricaria inodora [19]; application rate 20 g/ha,100%
same,Matricaria inodora (efficacy in %),Matricaria inodora [19]; application rate 80 g/ha,100%
same,Polygonum convolvulus (efficacy in %),Polygonum convolvulus [20]; application rate 20 g/ha,90%
same,Polygonum convolvulus (efficacy in %),Polygonum convolvulus [20]; application rate 80 g/ha,100%
same,Lolium rigidum (efficacy in %),Lolium rigidum,100%
same,Pharbitis purpurea (efficacy in %),Pharbitis purpurea [21],100%
same,Viola tricolor (efficacy in %),Viola tricolor [22]; application rate 20 g/ha,100%
same,Viola tricolor (efficacy in %),Viola tricolor [22]; application rate 80 g/ha,100%
same,Veronica persica (efficacy in %),Veronica persica [23]; application rate 20 g/ha,80%
same,Veronica persica (efficacy in %),Veronica persica [23]; application rate 80 g/ha,100%
same,Amaranthus retroflexus (efficacy in %),Amaranthus retroflexus [24]; application rate 20 g/ha,100%
same,Amaranthus retroflexus (efficacy in %),Amaranthus retroflexus [24]; application rate 80 g/ha,100%
same,Alopecurus myosuroides (efficacy in %),Alopecurus myosuroides,90%

# Source: patent US20220274954A1, “SUBSTITUTED N-PHENYL-N-AMINOUARCILS AND SALTS THEREOF AND USE THEREOF AS HERBICIDAL AGENTS” (Bayer Aktiengesellschaft, priority 2019, published 2022)
